From US20250313563A1, “GLYCOGEN SYNTHASE KINASE 3 INHIBITORS AND USES THEREOF” (The Broad Institute, Inc., priority 2022, published 2025)
Where two headings read alike, the source gives them in different places.

Experiments:
[1] = target: GSK3α (GST-full length GSK3α) (Homo sapiens (Human), UniProt P49840); assay: GSK3α TR-FRET kinase assay; format: biochemical
How it was run: (§1)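 Compound preincubated 30 min, then 1 nM GST-full-length GSK3α or GSK3b run 100 min at ambient temperature with 200 nM biotinylated, S645-prephosphorylated glycogen synthase 631-650 peptide in Tris pH 7.5, MgCl2, DTT, BSA, 1% DMSO. ATP 4 μM (α) or 2 μM (β), or 1 mM. EDTA-quenched; Tb-anti-pSer641/streptavidin-d2 TR-FRET 665/615 ratio gave IC50.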

[2] = target: GSK3b (GST-full length GSK3b) (Homo sapiens (Human), UniProt P49841); assay: GSK3b TR-FRET kinase assay; format: biochemical
Sequence of GSK3b (GST-full length GSK3b) (P49841 whole entry): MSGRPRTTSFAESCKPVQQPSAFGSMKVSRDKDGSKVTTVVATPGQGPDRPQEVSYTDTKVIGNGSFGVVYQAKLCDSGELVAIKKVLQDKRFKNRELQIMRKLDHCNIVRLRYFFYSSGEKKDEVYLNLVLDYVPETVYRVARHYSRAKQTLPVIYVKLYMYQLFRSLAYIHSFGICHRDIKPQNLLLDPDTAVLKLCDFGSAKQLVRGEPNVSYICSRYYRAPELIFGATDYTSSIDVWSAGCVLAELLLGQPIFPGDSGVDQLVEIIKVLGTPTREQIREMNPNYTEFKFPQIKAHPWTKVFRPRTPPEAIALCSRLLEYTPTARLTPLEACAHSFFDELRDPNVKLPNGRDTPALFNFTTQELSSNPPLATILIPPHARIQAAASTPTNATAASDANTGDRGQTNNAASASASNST
How it was run: as §1

[3] = 1 nM GSK3α, 4 μM ATP, 30 minute preincubation, Table 16, read-out: GSK3-A TR-FRET BIOCHEMICAL (TR-FRET)
[4] = GSK3-A (TR-FRET 1 mM ATP), GMean, IC50, 1 mM ATP, geometric mean
[5] = 1 nM GSK3b, 2 μM ATP, 30 minute preincubation, Table 16, read-out: GSK3-B TR-FRET BIOCHEMICAL (TR-FRET)
[6] = GSK3-B (TR-FRET 1 mM ATP), GMean, IC50, 1 mM ATP, geometric mean
[7] = 1 nM GSK3α, 4 μM ATP, 30 minute preincubation, read-out: GSK3-A TR-FRET BIOCHEMICAL (TR-FRET), IC50
[8] = 1 nM GSK3b, 2 μM ATP, 30 minute preincubation, read-out: GSK3-B TR-FRET BIOCHEMICAL (TR-FRET), IC50
[9] = read-out: GSK3-A (TR-FRET 1 mM ATP), GMean, IC50, 1 mM ATP, geometric mean
[10] = read-out: GSK3-B (TR-FRET 1 mM ATP), GMean, IC50, 1 mM ATP, geometric mean

Sequence of GSK3α (GST-full length GSK3α) (P49840 whole entry): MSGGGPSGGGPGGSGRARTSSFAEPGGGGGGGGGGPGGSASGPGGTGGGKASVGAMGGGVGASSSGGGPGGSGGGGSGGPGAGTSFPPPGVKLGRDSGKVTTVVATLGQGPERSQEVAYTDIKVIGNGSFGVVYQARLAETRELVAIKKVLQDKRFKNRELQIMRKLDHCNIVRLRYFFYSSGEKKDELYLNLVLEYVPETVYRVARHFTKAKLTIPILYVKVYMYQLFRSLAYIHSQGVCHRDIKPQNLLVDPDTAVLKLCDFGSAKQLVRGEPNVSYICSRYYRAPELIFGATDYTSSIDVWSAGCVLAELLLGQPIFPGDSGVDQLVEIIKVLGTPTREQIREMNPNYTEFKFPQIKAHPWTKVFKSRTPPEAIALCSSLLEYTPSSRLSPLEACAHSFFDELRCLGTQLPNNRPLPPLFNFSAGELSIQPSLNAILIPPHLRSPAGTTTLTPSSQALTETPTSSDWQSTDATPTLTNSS

Row | IC50 [1, 3] [µM] | IC50 [2, 5] [µM] | IC50 [1, 7] [µM] | IC50 [2, 8] [µM] | Compound | other results
1 | ≤ 0.1 | ≤ 0.1 | – | – | CC1(C)CC(=O)C2=C(C1)Nc1n[nH]cc1C21CCN(S(=O)(=O)c2cccc(Cl)c2)CC1 [Compound 947243] | IC50 [1, 4]: 0.1 to 1 µM; IC50 [2, 6]: 1 to 5 µM
2 | ≤ 0.1 | ≤ 0.1 | – | – | CC1(C)CC(=O)C2=C(C1)Nc1n[nH]cc1C21CCN(S(=O)(=O)c2cccc(C(F)(F)F)c2)CC1 [Compound 947244] | –
3 | ≤ 0.1 | 0.1 to 1 | – | – | COc1ccc(C)c(S(=O)(=O)N2CCC3(CC2)C2=C(CC(C)(C)CC2=O)Nc2n[nH]cc23)c1 [Compound 947245] | –
4 | ≤ 0.1 | ≤ 0.1 | – | – | CC1(C)CC(=O)C2=C(C1)Nc1n[nH]cc1C21CCN(S(=O)(=O)c2ccc(OC(F)F)cc2)CC1 [Compound 947246] | IC50 [1, 4]: ≤ 0.1 µM; IC50 [2, 6]: 0.1 to 1 µM
5 | ≤ 0.1 | ≤ 0.1 | – | – | CN(C)C(=O)c1cccc(S(=O)(=O)N2CCC3(CC2)C2=C(CC(C)(C)CC2=O)Nc2n[nH]cc23)c1 [Compound 947247] | –
6 | ≤ 0.1 | ≤ 0.1 | – | – | CC1(C)CC(=O)C2=C(C1)Nc1n[nH]cc1C21CCN(S(=O)(=O)c2ccc(C(F)F)cc2)CC1 [Compound 947248] | –
7 | ≤ 0.1 | ≤ 0.1 | – | – | CC1(C)CC(=O)C2=C(C1)Nc1n[nH]cc1C21CCN(S(=O)(=O)c2cccc(Cl)c2Cl)CC1 [Compound 947249] | –
8 | ≤ 0.1 | ≤ 0.1 | – | – | COCc1ccc(S(=O)(=O)N2CCC3(CC2)C2=C(CC(C)(C)CC2=O)Nc2n[nH]cc23)cc1 [Compound 947250] | –
9 | 0.1 to 1 | 0.1 to 1 | – | – | CC1(C)CC(=O)C2=C(C1)Nc1n[nH]cc1C21CCN(S(=O)(=O)c2ccc(F)cn2)CC1 [Compound 947251] | –
10 | ≤ 0.1 | ≤ 0.1 | – | – | CCc1ncc(S(=O)(=O)N2CCC3(CC2)C2=C(CC(C)(C)CC2=O)Nc2n[nH]cc23)s1 [Compound 947252] | –
11 | ≤ 0.1 | ≤ 0.1 | – | – | CCOc1cccc(S(=O)(=O)N2CCC3(CC2)C2=C(CC(C)(C)CC2=O)Nc2n[nH]cc23)c1 [Compound 947253] | IC50 [1, 4]: 0.1 to 1 µM; IC50 [2, 6]: 1 to 5 µM
12 | ≤ 0.1 | ≤ 0.1 | – | – | CC1(C)CC(=O)C2=C(C1)Nc1n[nH]cc1C21CCN(S(=O)(=O)c2cccc(C#N)c2)CC1 [Compound 947254] | IC50 [1, 4]: ≤ 0.1 µM; IC50 [2, 6]: 0.1 to 1 µM
13 | – | – | ≤ 0.1 | ≤ 0.1 | COc1ccc(S(=O)(=O)N2CCC3(CC2)C2=C(CC(C)(C)CC2=O)Nc2n[nH]cc23)c(F)c1 [Compound 947255] | IC50 [1, 4]: ≤ 0.1 µM; IC50 [2, 6]: 0.1 to 1 µM
14 | ≤ 0.1 | ≤ 0.1 | – | – | CC1(C)CC(=O)C2=C(C1)Nc1n[nH]cc1C21CCN(S(=O)(=O)c2ccc(C(F)(F)F)cc2)CC1 [Compound 947256] | –
15 | 0.1 to 1 | 1 to 5 | – | – | Cc1nn(C)c(C)c1S(=O)(=O)N1CCC2(CC1)C1=C(CC(C)(C)CC1=O)Nc1n[nH]cc12 [Compound 947257] | –
16 | ≤ 0.1 | ≤ 0.1 | – | – | CC(C)n1ccc(S(=O)(=O)N2CCC3(CC2)C2=C(CC(C)(C)CC2=O)Nc2n[nH]cc23)n1 [Compound 947258] | –
17 | ≤ 0.1 | ≤ 0.1 | – | – | Cc1nc(C)c(S(=O)(=O)N2CCC3(CC2)C2=C(CC(C)(C)CC2=O)Nc2n[nH]cc23)s1 [Compound 947259] | –
18 | – | – | ≤ 0.1 | ≤ 0.1 | COc1ncccc1S(=O)(=O)N1CCC2(CC1)C1=C(CC(C)(C)CC1=O)Nc1n[nH]cc12 [Compound 947260] | IC50 [1, 4]: ≤ 0.1 µM; IC50 [2, 6]: 0.1 to 1 µM
19 | ≤ 0.1 | ≤ 0.1 | – | – | Cc1cccc(S(=O)(=O)N2CCC3(CC2)C2=C(CC(C)(C)CC2=O)Nc2n[nH]cc23)c1 [Compound 947261] | –
20 | 0.1 to 1 | 0.1 to 1 | – | – | CC1(C)CC(=O)C2=C(C1)Nc1n[nH]cc1C21CCN(S(=O)(=O)c2cc(F)ccn2)CC1 [Compound 947262] | –
21 | ≤ 0.1 | ≤ 0.1 | – | – | COc1cc(S(=O)(=O)N2CCC3(CC2)C2=C(CC(C)(C)CC2=O)Nc2n[nH]cc23)ccc1F [Compound 947263] | IC50 [1, 4]: 0.1 to 1 µM; IC50 [2, 6]: 1 to 5 µM
22 | – | – | ≤ 0.1 | ≤ 0.1 | CC1(C)CC(=O)C2=C(C1)Nc1n[nH]cc1C21CCN(S(=O)(=O)c2cccc(C(F)F)c2)CC1 [Compound 947264] | IC50 [1, 4]: ≤ 0.1 µM; IC50 [2, 6]: 0.1 to 1 µM
23 | – | – | ≤ 0.1 | 0.1 to 1 | CC1(C)CC(=O)C2=C(C1)Nc1n[nH]cc1C21COC2(CN(C(=O)C3CCC(F)(F)C3)C2)C1 (stereo not drawn) [Compound 947265] | –
24 | – | – | ≤ 0.1 | ≤ 0.1 | CC1CC(C(=O)N2CC3(C2)CC2(CO3)C3=C(CC(C)(C)CC3=O)Nc3n[nH]cc32)C1 (stereo not drawn) [Compound 947266] | –

Row | IC50 [1, 3] [µM] | IC50 [2, 5] [µM] | IC50 [1, 7] [µM] | IC50 [2, 8] [µM] | Compound | other results
25 | – | – | ≤ 0.1 | 0.1 to 1 | CC1(C)CC(=O)C2=C(C1)Nc1n[nH]cc1C21COC2(CN(C(=O)C3CCC(F)CC3)C2)C1 (stereo not drawn) [Compound 947267] | –
26 | – | – | ≤ 0.1 | ≤ 0.1 | CC1CCC(C(=O)N2CC3(C2)CC2(CO3)C3=C(CC(C)(C)CC3=O)Nc3n[nH]cc32)C1 (stereo not drawn) [Compound 947268] | –
27 | – | – | ≤ 0.1 | ≤ 0.1 | CC1CCC(CC(=O)N2CC3(C2)CC2(CO3)C3=C(CC(C)(C)CC3=O)Nc3n[nH]cc32)C1 (stereo not drawn) [Compound 947269] | IC50 [1, 9]: 0.1 to 1 µM; IC50 [2, 10]: 0.1 to 1 µM
28 | – | – | ≤ 0.1 | 0.1 to 1 | CCC(C)C(=O)N1CC2(C1)CC1(CO2)C2=C(CC(C)(C)CC2=O)Nc2n[nH]cc21 (stereo not drawn) [Compound 947270] | –
29 | – | – | ≤ 0.1 | 0.1 to 1 | CC1(C)CC(=O)C2=C(C1)Nc1n[nH]cc1C21COC2(CN(C(=O)C3(C)CC(F)C3)C2)C1 (stereo not drawn) [Compound 947271] | –
30 | – | – | ≤ 0.1 | ≤ 0.1 | CC1(C)CC(=O)C2=C(C1)Nc1n[nH]cc1C21COC2(CN(C(=O)C3CC3(F)F)C2)C1 (stereo not drawn) [Compound 947272] | –
31 | – | – | ≤ 0.1 | ≤ 0.1 | CC(C)C1CC(C(=O)N2CC3(C2)CC2(CO3)C3=C(CC(C)(C)CC3=O)Nc3n[nH]cc32)C1 (stereo not drawn) [Compound 947273] | –
32 | – | – | ≤ 0.1 | 0.1 to 1 | CC1CCCC1C(=O)N1CC2(C1)CC1(CO2)C2=C(CC(C)(C)CC2=O)Nc2n[nH]cc21 (stereo not drawn) [Compound 947274] | –
33 | – | – | ≤ 0.1 | ≤ 0.1 | CC1(C)CC(=O)C2=C(C1)Nc1n[nH]cc1C21COC2(CN(C(=O)C(C)(F)F)C2)C1 (stereo not drawn) [Compound 947275] | IC50 [1, 9]: 0.1 to 1 µM; IC50 [2, 10]: 0.1 to 1 µM
34 | – | – | ≤ 0.1 | ≤ 0.1 | CC1(C)CC(=O)C2=C(C1)Nc1n[nH]cc1C21COC2(CN(C(=O)C(C)(C)F)C2)C1 (stereo not drawn) [Compound 947276] | –
35 | – | – | ≤ 0.1 | ≤ 0.1 | CC1(C)CC(=O)C2=C(C1)Nc1n[nH]cc1C21COC2(CN(C(=O)C3(F)CCCC3)C2)C1 (stereo not drawn) [Compound 947277] | –
36 | – | – | ≤ 0.1 | ≤ 0.1 | CC1(C)CC(=O)C2=C(C1)Nc1n[nH]cc1C21COC2(CN(C(=O)CC3CC(F)(F)C3)C2)C1 (stereo not drawn) [Compound 947278] | –
37 | – | – | ≤ 0.1 | ≤ 0.1 | CC1(C)CC(=O)C2=C(C1)Nc1n[nH]cc1C21COC2(CN(C(=O)C3(F)CCC3)C2)C1 (stereo not drawn) [Compound 947279] | –
38 | – | – | ≤ 0.1 | ≤ 0.1 | CC1(C)CC(=O)C2=C(C1)Nc1n[nH]cc1C21COC2(CN(C(=O)C(F)(F)F)C2)C1 (stereo not drawn) [Compound 947280] | –
39 | – | – | ≤ 0.1 | ≤ 0.1 | Cc1ccc(CC(=O)N2CC3(C2)CC2(CO3)C3=C(CC(C)(C)CC3=O)Nc3n[nH]cc32)cc1 (stereo not drawn) [Compound 947281] | IC50 [1, 9]: 0.1 to 1 µM; IC50 [2, 10]: 0.1 to 1 µM
40 | – | – | ≤ 0.1 | 0.1 to 1 | CC1(C)CC(=O)C2=C(C1)Nc1n[nH]cc1C21COC2(CN(C(=O)C3CC(C)(C)C3)C2)C1 (stereo not drawn) [Compound 947282] | –
41 | – | – | ≤ 0.1 | ≤ 0.1 | CC1(C)CC(=O)C2=C(C1)Nc1n[nH]cc1C21COC2(CN(C(=O)c3cccc(F)c3)C2)C1 (stereo not drawn) [Compound 947283] | –
42 | – | – | ≤ 0.1 | 0.1 to 1 | Cc1cccc(C(=O)N2CC3(C2)CC2(CO3)C3=C(CC(C)(C)CC3=O)Nc3n[nH]cc32)c1C (stereo not drawn) [Compound 947284] | –
43 | – | – | ≤ 0.1 | 0.1 to 1 | Cc1ccc(C)c(C(=O)N2CC3(C2)CC2(CO3)C3=C(CC(C)(C)CC3=O)Nc3n[nH]cc32)c1 (stereo not drawn) [Compound 947285] | –
44 | – | – | ≤ 0.1 | ≤ 0.1 | Cc1ccc(C(=O)N2CC3(C2)CC2(CO3)C3=C(CC(C)(C)CC3=O)Nc3n[nH]cc32)cc1C (stereo not drawn) [Compound 947286] | –
45 | – | – | ≤ 0.1 | 0.1 to 1 | Cc1ccccc1C(=O)N1CC2(C1)CC1(CO2)C2=C(CC(C)(C)CC2=O)Nc2n[nH]cc21 (stereo not drawn) [Compound 947287] | –
46 | – | – | ≤ 0.1 | ≤ 0.1 | CC1(C)CC(=O)C2=C(C1)Nc1n[nH]cc1C21COC2(CN(C(=O)C3CCC3)C2)C1 (stereo not drawn) [Compound 947288] | IC50 [1, 9]: 0.1 to 1 µM; IC50 [2, 10]: 0.1 to 1 µM
47 | – | – | ≤ 0.1 | ≤ 0.1 | CC1(C)CC(=O)C2=C(C1)Nc1n[nH]cc1C21COC2(CN(C(=O)c3ccccc3F)C2)C1 (stereo not drawn) [Compound 947289] | –
48 | – | – | ≤ 0.1 | ≤ 0.1 | Cc1ccc(C(=O)N2CC3(C2)CC2(CO3)C3=C(CC(C)(C)CC3=O)Nc3n[nH]cc32)cc1 (stereo not drawn) [Compound 947290] | –
